According to ChEMBL document CHEMBL4043212, “Design, synthesis and biological evaluation of 1,3-diphenylbenzo[f][1,7]naphthyrdines” (2017):

Key:
PC-3 = assay: Cytotoxicity against human PC3 cells assessed as inhibition of cell growth incubated for 72 hrs by SRB assay; format: functional
NCI-H23 = assay: Cytotoxicity against human NCI-H23 cells assessed as inhibition of cell growth incubated for 72 hrs by SRB assay; format: functional
ACHN = assay: Cytotoxicity against human ACHN cells assessed as inhibition of cell growth incubated for 72 hrs by SRB assay; format: functional
HCT-15 = assay: Cytotoxicity against human HCT15 cells assessed as inhibition of cell growth incubated for 72 hrs by SRB assay; format: functional
MDA-MB-231 = assay: Cytotoxicity against human MDA-MB-231 cells assessed as inhibition of cell growth incubated for 72 hrs by SRB assay; format: functional
NUGC-3 = assay: Cytotoxicity against human NUGC3 cells assessed as inhibition of cell growth incubated for 72 hrs by SRB assay; format: functional
[1] = target: DNA topoisomerase 2-alpha (Homo sapiens) (UniProt P11388); assay: Inhibition of human topoisomerase-2 alpha assessed as reduction in conversion of super coiled plasmid DNA to relaxed DNA at 100 uM using supercoiled pBR322 DNA as substrate after 30 mins by ethidium bromide staining based agarose gel electrophoresis method relative to control
[2] = target: DNA topoisomerase 2-alpha (Homo sapiens) (UniProt P11388); assay: Inhibition of human topoisomerase-2 alpha assessed as reduction in conversion of super coiled plasmid DNA to relaxed DNA at 20 uM using supercoiled pBR322 DNA as substrate after 30 mins by ethidium bromide staining based agarose gel electrophoresis method relative to control
[3] = target: DNA topoisomerase 2-alpha (Homo sapiens) (UniProt P11388); assay: Potency index, ratio of inhibitory activity of etoposide to test compound for inhibition of human topoisomerase-2 alpha at 20 uM using supercoiled pBR322 DNA as substrate after 30 mins by ethidium bromide staining based agarose gel electrophoresis method relative to control
[4] = target: DNA topoisomerase 2-alpha (Homo sapiens) (UniProt P11388); assay: Potency index, ratio of inhibitory activity of etoposide to test compound for inhibition of human topoisomerase-2 alpha at 100 uM using supercoiled pBR322 DNA as substrate after 30 mins by ethidium bromide staining based agarose gel electrophoresis method relative to control

Chain of DNA topoisomerase 2-alpha (Homo sapiens) (P11388 whole entry): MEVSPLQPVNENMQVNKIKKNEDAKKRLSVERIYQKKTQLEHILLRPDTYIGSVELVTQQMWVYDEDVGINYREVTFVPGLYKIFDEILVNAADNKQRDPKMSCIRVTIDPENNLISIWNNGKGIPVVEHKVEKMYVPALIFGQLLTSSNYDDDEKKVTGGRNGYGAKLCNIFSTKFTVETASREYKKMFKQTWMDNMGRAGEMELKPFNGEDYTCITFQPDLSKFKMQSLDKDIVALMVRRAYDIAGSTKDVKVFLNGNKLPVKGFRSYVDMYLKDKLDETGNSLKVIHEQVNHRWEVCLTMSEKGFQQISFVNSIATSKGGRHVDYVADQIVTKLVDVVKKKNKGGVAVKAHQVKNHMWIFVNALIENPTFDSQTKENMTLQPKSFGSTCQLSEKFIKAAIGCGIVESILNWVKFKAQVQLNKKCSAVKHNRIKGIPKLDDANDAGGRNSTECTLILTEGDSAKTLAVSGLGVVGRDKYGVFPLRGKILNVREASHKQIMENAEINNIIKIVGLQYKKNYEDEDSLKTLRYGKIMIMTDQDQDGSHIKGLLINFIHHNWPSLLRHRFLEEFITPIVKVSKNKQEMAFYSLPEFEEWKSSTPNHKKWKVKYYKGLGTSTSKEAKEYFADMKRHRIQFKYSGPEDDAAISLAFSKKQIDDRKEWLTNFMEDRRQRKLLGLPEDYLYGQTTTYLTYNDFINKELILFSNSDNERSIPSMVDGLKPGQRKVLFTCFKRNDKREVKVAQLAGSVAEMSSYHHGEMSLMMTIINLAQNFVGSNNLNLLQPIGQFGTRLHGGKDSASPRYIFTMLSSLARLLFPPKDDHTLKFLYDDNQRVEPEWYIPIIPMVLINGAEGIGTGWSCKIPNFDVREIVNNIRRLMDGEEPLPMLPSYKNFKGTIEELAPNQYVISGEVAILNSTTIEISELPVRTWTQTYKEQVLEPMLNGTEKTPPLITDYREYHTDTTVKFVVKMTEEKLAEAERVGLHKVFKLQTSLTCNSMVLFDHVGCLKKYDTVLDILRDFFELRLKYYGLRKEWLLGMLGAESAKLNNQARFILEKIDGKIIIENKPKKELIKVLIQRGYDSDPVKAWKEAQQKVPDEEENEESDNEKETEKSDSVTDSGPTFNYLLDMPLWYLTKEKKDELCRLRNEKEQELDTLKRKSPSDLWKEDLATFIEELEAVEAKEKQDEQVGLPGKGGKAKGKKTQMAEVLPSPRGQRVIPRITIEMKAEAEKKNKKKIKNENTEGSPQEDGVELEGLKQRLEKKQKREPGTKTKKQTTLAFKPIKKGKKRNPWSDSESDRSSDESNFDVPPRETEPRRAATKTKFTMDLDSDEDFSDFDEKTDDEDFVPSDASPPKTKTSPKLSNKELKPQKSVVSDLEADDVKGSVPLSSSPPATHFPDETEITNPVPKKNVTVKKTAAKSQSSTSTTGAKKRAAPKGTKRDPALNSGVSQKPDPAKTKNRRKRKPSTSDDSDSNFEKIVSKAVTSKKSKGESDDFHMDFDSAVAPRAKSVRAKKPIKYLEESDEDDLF

| SMILES | GI50 (PC-3; Homo sapiens, PC-3, 72 h) [µM] | GI50 (NCI-H23; Homo sapiens, NCI-H23, 72 h) [µM] | GI50 (ACHN; Homo sapiens, ACHN, 72 h) [µM] | GI50 (HCT-15; Homo sapiens, HCT-15, 72 h) [µM] | GI50 (MDA-MB-231; Homo sapiens, MDA-MB-231, 72 h) [µM] | GI50 (NUGC-3; Homo sapiens, NUGC-3, 72 h) [µM] | GI50 (PC-3) [µM] | GI50 (NCI-H23) [µM] | GI50 (ACHN) [µM] | GI50 (HCT-15) [µM] | GI50 (MDA-MB-231) [µM] | GI50 (NUGC-3) [µM] | inhibition [1] [%] | inhibition [2] [%] | Ratio [3] | Ratio [4] |
| --- | --- | --- | --- | --- | --- | --- | --- | --- | --- | --- | --- | --- | --- | --- | --- | --- |
| COc1cccc2c1C(=O)c1c(O)c3c(c(O)c1C2=O)C[C@@](O)(C(=O)CO)C[C@@H]3O[C@H]1C[C@H](N)[C@H](O)[C@H](C)O1 [DOXORUBICIN] | 0.076 | 0.09 | 0.08 | 0.077 | 0.068 | 0.086 |  |  |  |  |  |  |  |  |  |  |
| COc1ccc(-c2cc(-c3ccc([N+](=O)[O-])cc3)nc3cnc4ccccc4c23)cc1 [listing 1 of 2 here] |  |  |  |  |  |  | > 10 | > 10 | > 10 | > 10 | > 10 | > 10 |  |  |  |  |
| COc1ccc(-c2cc(-c3ccc4ccccc4c3)nc3cnc4ccccc4c23)cc1 | > 10 | > 10 | > 10 | > 10 | > 10 | > 10 |  |  |  |  |  |  |  |  |  |  |
| COc1ccc(-c2c(C)c(-c3ccccc3Br)nc3cnc4ccccc4c23)cc1 | > 10 | > 10 | > 10 | > 10 | > 10 | > 10 |  |  |  |  |  |  |  |  |  |  |
| COc1ccc(-c2cc(-c3ccccc3[N+](=O)[O-])nc3cnc4ccccc4c23)cc1 | > 10 | > 10 | > 10 | > 10 | > 10 | > 10 |  |  |  |  |  |  |  |  |  |  |
| COc1ccc(-c2cc(-c3cccc4ccccc34)nc3cnc4ccccc4c23)cc1 [listing 1 of 2 here] |  |  |  |  |  |  | 1.57 | 1.81 | 2.25 | 1.98 | 1.51 | 1.68 |  |  |  |  |
| COc1ccc(-c2cc(-c3ccc(Br)cc3)nc3cnc4ccccc4c23)cc1 | 6.75 | 1.62 | 4.95 | 1.97 | 2.58 | 1.85 |  |  |  |  |  |  |  |  |  |  |
| COc1ccc(-c2cc(-c3cccs3)nc3cnc4ccccc4c23)cc1 | 6.88 | 3.3 | 5.65 | 7.06 | 7.69 | 2 |  |  |  |  |  |  |  |  |  |  |
| COc1ccc(-c2cc(-c3ccc(Cl)cc3)nc3cnc4ccccc4c23)cc1 | 1.53 | 1.7 | 1.69 | 4.82 | 2.94 | 2.17 |  |  |  |  |  |  | 3 |  |  |  |
| COc1ccc(-c2cc(-c3ccc([N+](=O)[O-])cc3)nc3cnc4ccccc4c23)cc1 [listing 2 of 2 here] |  |  |  |  |  |  | 3.59 | 2.43 | 3.92 | 4.37 | 3.49 | 2.87 |  |  |  |  |
| COc1ccc(-c2cc(-c3cccc(C#N)c3)nc3cnc4ccccc4c23)cc1 | 3.15 | 1.89 | 3.86 | 1.79 | 1.79 | 2.03 |  |  |  |  |  |  | 0.2 |  |  |  |
| COc1ccc(-c2cc(-c3ccccc3)nc3cnc4ccccc4c23)cc1 | 3.07 | 4.02 | 2.13 | 4.38 | 7.28 | 5.83 |  |  |  |  |  |  |  |  |  |  |
| COc1ccc(-c2cc(-c3cccc4ccccc34)nc3cnc4ccccc4c23)cc1 [listing 2 of 2 here] |  | 1.65 |  | 2.72 | 2.81 | 2.16 | 3.38 |  | 5.36 |  |  |  |  |  |  |  |
| CCn1cc(-c2cc(-c3ccc(OC)cc3)c3c(cnc4ccccc43)n2)c2ccccc21 | 6.15 | 2.07 | 5.61 | 4.88 | 3.04 | 3.03 |  |  |  |  |  |  |  |  |  |  |
| CCCCCCn1cc(-c2cc(-c3ccc(OC)cc3)c3c(cnc4ccccc43)n2)c2ccccc21 | > 10 | > 10 | > 10 | > 10 | > 10 | > 10 |  |  |  |  |  |  |  |  |  |  |
| COc1ccc(-c2cc(-c3ccc(N(C)C)cc3)nc3cnc4ccccc4c23)cc1 | 2.98 | 1.72 | 1.98 | 1.86 | 2.3 | 1.95 |  |  |  |  |  |  | 91.3 | 42.4 | 1.2 | 1.3 |
| COc1ccc(-c2cc(-c3ccccc3Br)nc3cnc4ccccc4c23)cc1 | > 10 | > 10 | > 10 | > 10 | > 10 | > 10 |  |  |  |  |  |  |  |  |  |  |
| COc1ccc(-c2cc(-c3ccccc3Cl)nc3cnc4ccccc4c23)cc1 | 4.46 | 2.55 | 3.27 | 2.15 | 3.32 | 3 |  |  |  |  |  |  |  |  |  |  |
| COc1ccc(-c2cc(-c3ccc(OC)c4ccccc34)nc3cnc4ccccc4c23)cc1 | > 10 | > 10 | > 10 | > 10 | > 10 | > 10 |  |  |  |  |  |  |  |  |  |  |
| COc1ccc(-c2cc(-c3ccc(C(F)(F)F)cc3)nc3cnc4ccccc4c23)cc1 | > 10 | > 10 | > 10 | > 10 | > 10 | > 10 |  |  |  |  |  |  |  |  |  |  |
| COc1ccc(-c2cc(-c3ccc(C(F)(F)F)cc3C(F)(F)F)nc3cnc4ccccc4c23)cc1 | > 10 | > 10 | > 10 | > 10 | > 10 | > 10 |  |  |  |  |  |  |  |  |  |  |
| COc1ccc(-c2cc(-c3ccc(OC)cc3)c3c(cnc4ccccc43)n2)cc1 | > 10 | > 10 | > 10 | > 10 | > 10 | > 10 |  |  |  |  |  |  |  |  |  |  |
